Laboratory results as given in patent US9714247B2, “Multiple kinase pathway inhibitors” (Mannkind Corporation, priority 2012, dated 2017).
Read-outs that look alike come from different tables or passages of the source.

Columns and labels:
[1] = biological target: T1, Src (Homo sapiens (Human), UniProt P12931); assay: biochemical
[2] = biological target: T2, Lyn (Homo sapiens (Human), UniProt P07948); conditions: read-out: Lyn IC50
[3] = system: DoHH2 cells; conditions: treated 24 hours
[4] = system: DoHH2; assay: Apoptosis by flow cytometry (Annexin V / 7AAD); type: cell-based, human; conditions: Table 6; for Percent Apoptosis at 2 uM: DOHH2, 2 uM; for Percent Apoptosis at 5 uM: DOHH2, 5 uM
Text: Activation of Tec family kinases including BTK, and/or Src kinase family members, regulates cell survival and cell death in normal B cells, lymphomas, and solid tumors. Apoptosis is a programmed cell death characterized by specific changes in cell morphology. […] Staurosporine was used as a positive control for apoptosis. […] Table 6 illustrates that several amino naphthyridinones induce significant apoptosis in DoHH2 cells.

[5] = biological target: BTK (Homo sapiens (Human), UniProt Q06187)
Chain of BTK (Q06187 whole entry): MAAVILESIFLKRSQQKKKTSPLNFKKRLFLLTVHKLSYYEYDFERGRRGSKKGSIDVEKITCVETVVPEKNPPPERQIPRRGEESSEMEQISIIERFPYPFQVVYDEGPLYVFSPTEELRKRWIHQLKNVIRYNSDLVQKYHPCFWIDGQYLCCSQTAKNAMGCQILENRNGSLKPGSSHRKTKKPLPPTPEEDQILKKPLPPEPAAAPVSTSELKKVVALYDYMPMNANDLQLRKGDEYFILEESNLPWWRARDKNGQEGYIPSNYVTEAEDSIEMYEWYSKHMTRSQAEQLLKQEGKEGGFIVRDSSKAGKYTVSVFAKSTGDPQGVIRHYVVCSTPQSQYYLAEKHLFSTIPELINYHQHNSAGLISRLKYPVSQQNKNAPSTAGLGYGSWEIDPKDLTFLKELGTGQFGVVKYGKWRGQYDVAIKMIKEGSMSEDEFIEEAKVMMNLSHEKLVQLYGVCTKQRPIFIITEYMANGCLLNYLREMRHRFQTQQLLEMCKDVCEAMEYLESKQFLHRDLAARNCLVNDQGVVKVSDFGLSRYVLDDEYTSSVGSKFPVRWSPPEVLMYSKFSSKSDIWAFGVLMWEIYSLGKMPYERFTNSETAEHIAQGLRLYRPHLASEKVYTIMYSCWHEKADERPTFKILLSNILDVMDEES

[6] = system: Ramos; assay: CellTiter-Glo proliferation/viability assay; type: cell-based, human; conditions: Homo sapiens, Ramos, read-out: Ramos EC50
[7] = system: DoHH2; assay: CellTiter-Glo proliferation/viability assay; type: cell-based, human; conditions: Homo sapiens, DOHH-2
[8] = system: phosphorylation of SFKs in Ramos cells; assay: SFK phosphorylation (Tyr 416) by flow cytometry; type: cell-based, human; conditions: Homo sapiens, 0.3 uM, flow cytometry, SFK phosphorylated at Tyr 416, read-out: pSRC % inhibition
Protocol: Ramos cell lysates from stimulated and unstimulated cells were analyzed for the levels of phosphorylated SRC family members. As described in Example 82 (above), cells were pretreated for 2 hours with an amino naphthyridinones and then stimulated with anti-IgM antibody and H2O2, protein lysates were prepared, quantified and used for Western blotting. A commercially available antibody that detects Src phosphorylated at Tyr 416 (Cell Signalling) and may cross-react with other Src family members such as Lyn, Fyn, Lck, Yes and Hck when phosphorylated at equivalent sites was used for Western blot analysis. The molecular weights of SFK family members are quite similar (in the 55-60 kDa range) and different family members cannot be resolved by the conditions used for the Western blot. […] The procedure can be similarly adapted for flow cytometric analysis as with the PLC-γ2 assay in Example 82. Ramos cells were incubated with Compound 1 for 2 hrs in RPMI media with 5% FBS prior to stimulation stimulated with H2O2/anti-IgM/F(Ab) for 10 minutes. Cells were evaluated by FACS analysis using anti-pSRC antibody and FITC-conjugated goat anti-rabbit secondary antibody following overnight storage at 4° C. in BD perm/wash buffer.
Ramos cells were prepared for flow cytometry analysis as described in example 82, and stained with a commercially available antibody that detects SFK phosphorylated at Tyr 416, followed by Alexa Fluor 488 conjugated secondary antibody. […] Thus amino naphthyridinones are useful in the inhibition of the phosphorylation of SFKs.

[9] = system: PLCγ2 phosphorylation in Ramos cells; assay: PLCγ2 phosphorylation by flow cytometry; type: cell-based, human; conditions: Homo sapiens, flow cytometry; for inhibition at 0.3 µM: anti-phospho PLCγ2 (Tyr759), read-out: pPLCγ % inhibition; for EC50: anti-phospho PLCγ2 (Tyr1217), four concentrations, read-out: Inhibition of phosphorylation of PLC-γ2 EC50
Protocol: Ramos cells were cultured in RPMI 1640 media with 10% FBS and were starved overnight (18 h) in 1% FBS containing media and on the next day pretreated with inhibitor for 2 h before stimulation. Cells were stimulated to induce BTK network dependent signal transduction pathways using mouse anti-human IgM (final concentration 10 ug/ml; Invitrogen) antibodies and 3.3 mM H2O2 mixture for 2 minutes followed by F(Ab) fragment that cross-linked the anti-IgM antibody (final concentration 10 ug/ml), and 3.3 mM H2O2 for 8 minutes. Cell lysates were prepared in lysis buffer containing protease and phosphatase inhibitors, quantified using the BCA protein assay kit (Pierce) and used for Western blotting. Antibodies specifically targeted to the molecules of interest, PLCγ2 phosphorylated at Tyr1217 and total PLCγ2, (Cell Signaling Technology) were used in a standard Western blotting procedure.
PLCγ2 phosphorylation was also assessed by flow cytometry. Cells were similarly stimulated and following stimulation, Cytofix buffer (Becton Dickinson) was added, cells were centrifuged and the cell pellets incubated on ice with Phosflow perm buffer III (Becton Dickinson). These cell pellets were washed with Perm/Wash buffer (Becton Dickinson); resuspended and labeled for flow cytometry analysis in a staining mixture containing Perm/Wash buffer and PE-labeled anti-phosphoPCLγa2 (Tyr1217) antibody (Becton Dickinson). The samples were washed with Perm/Wash buffer and analyzed on a FACS Calibur flow cytometer using CellQuest Pro software. As mentioned for the Western blot experiments, phosphorylation of PLCγ2 at Tyr1217 along with Tyr753, Tyr759 and Tyr1197 is correlated with increased PLCγ2 activity. The readout for BTK network signaling was inhibition of phosphorylation of PLCγ2. Cells were gated to exclude dead or dying cells. Fluorescence signals from the antibody staining were plotted in logarithmic units and data was analyzed using Cellquest Pro software. […] An ED50 was calculated based on the geometric mean of fluorescence intensity observed for treatment for four different concentrations of the inhibitors (see Table 7 and FIG. 6). […] Thus treatment with amino naphthyridinones inhibits PLCγ2 phosphorylation consistent with inhibition of BTK and/or LYN activity.
Following stimulation, cells were prepared for analysis by flow cytometry as described above. In short, cells were fixed and permeabilized using Cytofix buffer, Phosflow perm buffer and Perm/Wash buffer (Becton Dickinson). The cells were stained with PE-labeled anti-phosphoPCLγ2 (Tyr759) antibody (Becton Dickinson) and analyzed on a FACS Calibur flow cytometer using CellQuest Pro software. […] Thus aminonaphthyridinones are useful for the indirect inhibition of PLCγ2 phosphorylation.

[10] = biological target: T2, Lyn; assay: biochemical
[11] = biological target: T1, Src; conditions: read-out: Src IC50
[12] = Table 4, DoHH2 cells, read-out: EC50 (Proliferation)

T2 sequence (P07948 whole entry): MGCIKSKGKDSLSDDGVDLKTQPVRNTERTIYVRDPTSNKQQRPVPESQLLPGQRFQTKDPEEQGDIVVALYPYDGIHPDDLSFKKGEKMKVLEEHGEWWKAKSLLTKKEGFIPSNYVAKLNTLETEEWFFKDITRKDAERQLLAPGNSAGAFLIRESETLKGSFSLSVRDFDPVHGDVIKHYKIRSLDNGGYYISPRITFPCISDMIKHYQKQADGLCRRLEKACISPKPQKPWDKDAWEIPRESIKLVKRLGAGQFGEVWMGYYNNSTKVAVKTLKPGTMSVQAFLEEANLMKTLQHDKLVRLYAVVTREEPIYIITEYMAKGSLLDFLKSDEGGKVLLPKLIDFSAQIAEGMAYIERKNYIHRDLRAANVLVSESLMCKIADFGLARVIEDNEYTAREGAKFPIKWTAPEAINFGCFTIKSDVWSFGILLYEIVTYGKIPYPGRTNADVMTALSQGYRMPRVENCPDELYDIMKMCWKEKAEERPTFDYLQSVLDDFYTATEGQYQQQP
T1 sequence (P12931 whole entry, looked up): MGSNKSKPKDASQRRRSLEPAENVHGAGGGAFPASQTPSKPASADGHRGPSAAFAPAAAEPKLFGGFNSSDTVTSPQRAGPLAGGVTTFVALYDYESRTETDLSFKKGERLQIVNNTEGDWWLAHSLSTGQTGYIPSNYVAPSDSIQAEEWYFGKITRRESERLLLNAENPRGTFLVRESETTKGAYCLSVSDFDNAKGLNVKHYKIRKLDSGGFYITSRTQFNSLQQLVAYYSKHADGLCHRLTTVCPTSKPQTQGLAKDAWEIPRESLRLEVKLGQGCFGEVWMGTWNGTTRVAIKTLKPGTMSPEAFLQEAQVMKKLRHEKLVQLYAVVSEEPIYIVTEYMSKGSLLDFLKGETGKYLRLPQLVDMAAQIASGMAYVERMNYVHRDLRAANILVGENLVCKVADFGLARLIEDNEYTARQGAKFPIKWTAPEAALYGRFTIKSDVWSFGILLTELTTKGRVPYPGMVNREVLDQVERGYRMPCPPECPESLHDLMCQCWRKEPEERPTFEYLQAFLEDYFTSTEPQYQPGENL

Row | Compound | IC50 [1] [nM] | IC50 [2] [nM] | IC50 ([5]; read-out: BTK IC50) [nM] | EC50 ([6]; 48 h) [nM] | EC50 [9] [nM] | IC50 [10] [nM] | IC50 [11] [nM] | EC50 ([6]; 48 hrs) [nM] | IC50 [5] [nM] | IC50 ([10]; Lyn IC50) [nM] | Effect on Cell Cycle [3] | Percent Apoptosis at 2 uM [4] [%] | Percent Apoptosis at 5 uM [4] [%] | EC50 ([7]; 48 hrs, read-out: DoHH2 EC50) [nM] | EC50 [7, 12] [nM] | inhibition at 0.3 µM [8] [%] | inhibition at 0.3 µM [9] [%]
1 | CCN(CC)CCOc1ccc(Nc2cc3c(cn2)cc(-c2ccccc2)c(=O)n3C2CCC2)nc1 [Compound 25, 1-cyclobutyl-7-(5-(2-(diethylamino)ethoxy)pyridin-2-ylamino)-3-phenyl-1,6-naphthyridin-2(1H)-one] | 1000 to 5000 | – | – | 1000 to 10000 | 280 | 1000 to 5000 | – | – | – | – | G1 Arrest | 26.94 | 20.29 | < 1000 | < 1000 | 26 | 61
2 | CCN(CC)CCOc1ccc(Nc2cc3c(cn2)cc(-c2ccccc2)c(=O)n3C2CCCC2)nc1 [Compound 23, 1-cyclopentyl-7-(5-(2-(diethylamino)ethoxy)pyridin-2-ylamino)-3-phenyl-1,6-naphthyridin-2(1H)-one] | 100 to 1000 | – | – | 1000 to 10000 | – | 100 to 1000 | – | – | – | – | G1 Arrest | – | – | < 1000 | < 1000 | 5 | 32
3 | CCN(CC)CCOc1ccc(Nc2cc3c(cn2)cc(-c2ccccc2)c(=O)n3CCOC)nc1 [Compound 24, 7-(5-(2-(diethylamino)ethoxy)pyridin-2-ylamino)-1-(2-methoxyethyl)-3-phenyl-1,6-naphthyridin-2(1H)-one] | – | < 100 | < 100 | – | – | – | < 100 | 1000 to 10000 | – | – | – | 34.76 | 46.4 | < 1000 | – | – | –
4 | CCN(CC)CCOc1ccc(Nc2cc3c(cn2)cc(-c2ccccc2)c(=O)n3C2CCN(C)CC2)nc1 [Compound 16, 7-((5-(2-(diethylamino)ethoxy)pyridin-2-yl)amino)-1-(1-methylpiperidin-4-yl)-3-phenyl-1,6-naphthyridin-2(1H)-one] | – | 100 to 1000 | 100 to 1000 | – | – | 100 to 1000 | < 100 | 1000 to 10000 | 100 to 1000 | – | G1 Arrest | 32.57 | 58.99 | < 1000 | < 1000 | -1 | 46
5 | CCN(CC)CCOc1ccc(Nc2cc3c(cn2)cc(-c2ccccc2)c(=O)n3C(C)C)nc1 [Compound 22, 7-(5-(2-(diethylamino)ethoxy)pyridin-2-ylamino)-1-isopropyl-3-phenyl-1,6-naphthyridin-2(1H)-one] | 100 to 1000 | – | < 100 | 1000 to 10000 | – | – | – | – | – | 100 to 1000 | G1 Arrest | 21.68 | 25.8 | < 1000 | < 1000 | – | –

Now from value to compound, other results behind:

Row | IC50 [1] [nM] | IC50 [2] [nM] | IC50 ([5]; read-out: BTK IC50) [nM] | EC50 ([6]; 48 h) [nM] | EC50 [9] [nM] | IC50 [10] [nM] | IC50 [11] [nM] | EC50 ([6]; 48 hrs) [nM] | IC50 [5] [nM] | IC50 ([10]; Lyn IC50) [nM] | Compound | Effect on Cell Cycle [3] | Percent Apoptosis at 2 uM [4] [%] | Percent Apoptosis at 5 uM [4] [%] | EC50 ([7]; 48 hrs, read-out: DoHH2 EC50) [nM] | EC50 [7, 12] [nM] | inhibition at 0.3 µM [8] [%] | inhibition at 0.3 µM [9] [%]
6 | 100 to 1000 | < 100 | < 100 | 1000 to 10000 | – | – | – | – | – | – | CCn1c(=O)c(-c2c(F)cccc2F)cc2cnc(Nc3ccc(F)cn3)cc21 [Compound 75, 3-(2,6-difluorophenyl)-1-ethyl-7-((5-fluoropyridin-2-yl)amino)-1,6-naphthyri-din-2 (1H)-one] | G1 Arrest | 35.66 | 39.47 | < 1000 | < 1000 | – | –
7 | – | < 100 | – | 1000 to 10000 | – | – | < 100 | – | – | – | CCN(CC)CCOc1ccc(Nc2cc3c(cn2)cc(C(C)C)c(=O)n3C(C)C)nc1 [Compound 34, 7-[5-(2-Diethylamino-ethoxy)-pyridin-2-ylamino]-1,3-diisopropyl-1H-[1,6]naphthyridin-2-one] | No Arrest | 19.54 | 46.27 | – | – | – | –
8 | 100 to 1000 | – | < 100 | – | – | 100 to 1000 | – | 1000 to 10000 | – | – | CCN(CC)CCOc1ccc(Nc2cc3c(cn2)cc(-c2ccccc2)c(=O)n3C2CC2)nc1 [Compound 27, 1-cyclopropyl-7-(5-(2-(diethylamino)ethoxy)pyridin-2-ylamino)-3-phenyl-1,6-naphthyridin-2(1H)-one] | G1 Arrest | 37.05 | 54.19 | < 1000 | < 1000 | – | –
9 | – | – | < 100 | > 10000 | – | – | < 100 | – | – | 100 to 1000 | CCN(CC)CCOc1ccc(Nc2cc3c(cn2)cc(-c2ccccc2C(F)(F)F)c(=O)n3CC)nc1 [Compound 107, 7-((5-(2-(diethylamino)ethoxy)pyridin-2-yl)amino)-1-ethyl-3-(2-(trifluoromethyl)phenyl)-1,6-naphthyridin-2(1H)-one] | – | – | – | < 1000 | – | 28 | 48
10 | – | < 100 | – | – | 190 | – | < 100 | 1000 to 10000 | – | – | CCn1c(=O)c(-c2ccccc2)cc2cnc(Nc3ccc(N4CCN(C)CC4)cn3)cc21 [Compound 43, 1-Ethyl-7-[5-(4-methyl-piperazin-1-yl)-pyridin-2-ylamino]-3-phenyl-1H-[1,6]naphthyridin-2-one] | – | 27.26 | 29.38 | < 1000 | – | – | –
